From patent publication US12590103B2, “Polymorph of EP4 receptor antagonist, preparation method therefor and use thereof” (SHANGHAI YUYAO BIOTECH LTD., priority 2020, dated 2026)
Values belong to the compound of their own block, whether it stands above or below them.

Columns and labels:
Assay type in all cases: physicochemical
[1] = Stability determination at 25° C./92.5% RH (XRPD); settings: 25° C./92.5% RH for 9 days
Protocol: (§1) The solid samples obtained from the experiment were analyzed by D8 advance powder X-ray diffraction analyzer (Bruker). The instrument is equipped with a LynxEye detector, and the ray species is Cu Kα (λ=1.54184 Å). The 2θ scanning range of the sample is from 3° to 40°, and the scanning step is 0.02°. When measuring the sample, the light tube voltage and light tube current were 40 KV and 40 mA respectively.

[2] = Dynamic water vapor adsorption (DVS)
Protocol: The instrument model used for dynamic moisture absorption and desorption analysis is IGA Sorp(Hidentity Isochema). The sample measurement adopts gradient mode, the relative humidity range of the test is 0% to 90%, and the humidity increment of each gradient is 10%. The specific parameters are as follows: • Sample temperature: 25° C. • Temperature stability: 0.1° C./min • Flow rate: 250 mL/min • Scan: 2 • Model: F1 • Minimum time: 30 min • Maximum time: 120 min • Waiting cap: 98% • Start: Adsorption Scan • Adsorption humidity (%):0, 10, 20, 30, 40, 50, 60, 70, 80, 90; • Desorption humidity (%):80, 70, 60, 50, 40, 30, 20, 10, 0.
The initial raw material of Compound I was slurried in acetone for 4 hours, filtered and the resulting solid was characterized by XRPD, PLM, TGA, DSC and DVS.

[3] = DSC heat treatment (heating-cooling-heating cycle) with XRPD; settings: RT to 260° C., to −30° C., to 300° C.
Protocol: The DSC heating-cooling-heating cycle was used to try to find a crystal form with a higher melting point.
During the cooling process, there is an obvious exothermic peak. The initial temperature of the exothermic peak is 206.8° C., which should be caused by crystal transformation. XRPD characterization was performed on three different positions during DSC treatment.

[4] = Suspension crystal transformation experiment of Polymorphic Form I and Polymorphic Form II; settings: concluded from suspension crystal transformation at RT and 50° C.
Protocol: Suspension crystal transformation experiments were carried out on Polymorph I and polymorph II at room temperature and 50° C. respectively (Table 13). The resulting solid was characterized by XRPD.

[5] = XRPD characterization after heating (thermal crystal transformation)
Protocol: as §1

[6] = Volatilization at room temperature, sample checked by 1H NMR; settings: volatilized at room temperature in THF, MeOH-THF and THF-water
Protocol: The structure of the solid sample and the solvent contained in the sample were confirmed by ^1H NMR. The instrument used for ^1H NMR analysis is Bruker Advance 300 equipped with B-ACS 120 automatic sampling system.
Single solvent volatilization: an appropriate amount of initial raw materials of compound I was dissolved in the solvents shown in 1-6 in Table 8 to prepare a solution with a concentration of 8 to 20 mg/mL. The obtained solution was filtered, the filtrate was volatilized at room temperature, and the obtained solid was characterized by XRPD.
Binary solvent volatilization: an appropriate amount of initial raw materials of compound I was dissolved in the solvents shown in 7-25 of Table 8 to prepare a solution with a concentration of 10 mg/mL. After filtration, the resulting filtrate was then mixed with solvent −2; then volatilized at room temperature. A total of 19 solvent systems were used to carry out the volatilization experiment of binary solvent, and the obtained solid was characterized by XRPD.

Structure (SMILES): C[C@H](NC(=O)c1c(Cc2ccc(F)cc2)sc2c1CCOC2)c1ccc(C(=O)O)cc1 [polymorphic Form I, (S)-4-(1-(2-(4-fluorobenzyl)-4,7-dihydro-5H-thieno [2,3-c]pyran-3-carboxamido)ethyl) benzoic acid]
crystal form by XRPD after storage in high humidity [1]: remain unchanged
polymorph of the sample before and after moisture absorption ([2]; DVS 0% to 90% RH): does not change
moisture absorbed (DVS) ([2]; at 80% RH, 25° C.): < 2%
crystal form by XRPD at positions 1, 2 and 3 of the DSC treatment [3]: all polymorphic Form I
thermodynamic stability of the crystal form [4]: thermodynamically stable crystal form

Structure (SMILES): C[C@H](NC(=O)c1c(Cc2ccc(F)cc2)sc2c1CCOC2)c1ccc(C(=O)O)cc1 [polymorphic Form IV, (S)-4-(1-(2-(4-fluorobenzyl)-4,7-dihydro-5H-thieno [2,3-c]pyran-3-carboxamido)ethyl) benzoic acid]
crystal form by XRPD after heating ([5]; heated to 200° C.): transformed into polymorphic Form I

Structure (SMILES): C[C@H](NC(=O)c1c(Cc2ccc(F)cc2)sc2c1CCOC2)c1ccc(C(=O)O)cc1 [compound I, (S)-4-(1-(2-(4-fluorobenzyl)-4,7-dihydro-5H-thieno [2,3-c]pyran-3-carboxamido)ethyl) benzoic acid]
chemical stability of the sample (1H NMR) [6]: degraded

Structure (SMILES): C[C@H](NC(=O)c1c(Cc2ccc(F)cc2)sc2c1CCOC2)c1ccc(C(=O)O)cc1 [polymorphic Form V, (S)-4-(1-(2-(4-fluorobenzyl)-4,7-dihydro-5H-thieno [2,3-c]pyran-3-carboxamido)ethyl) benzoic acid]
crystal form by XRPD after heating ([5]; heated to 200° C.): converted into the polymorphic Form I

Next, values leading:

crystal form by XRPD after heating ([5]; heated to 200° C.): transformed into polymorphic Form I
Structure (SMILES): C[C@H](NC(=O)c1c(Cc2ccc(F)cc2)sc2c1CCOC2)c1ccc(C(=O)O)cc1 [polymorphic Form II, (S)-4-(1-(2-(4-fluorobenzyl)-4,7-dihydro-5H-thieno [2,3-c]pyran-3-carboxamido)ethyl) benzoic acid]

crystal form by XRPD after heating ([5]; heated to about 236° C.): transformed into polymorphic Form I
Structure (SMILES): C[C@H](NC(=O)c1c(Cc2ccc(F)cc2)sc2c1CCOC2)c1ccc(C(=O)O)cc1 [polymorphic Form VI, (S)-4-(1-(2-(4-fluorobenzyl)-4,7-dihydro-5H-thieno [2,3-c]pyran-3-carboxamido)ethyl) benzoic acid]

crystal form by XRPD after heating ([5]; heated to 240° C.): transformed into polymorphic Form I
Structure (SMILES): C[C@H](NC(=O)c1c(Cc2ccc(F)cc2)sc2c1CCOC2)c1ccc(C(=O)O)cc1 [polymorphic Form III, (S)-4-(1-(2-(4-fluorobenzyl)-4,7-dihydro-5H-thieno [2,3-c]pyran-3-carboxamido)ethyl) benzoic acid]
